From PubChem BioAssay (NCI)
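Protocol summary: plate cells (96-well), add compound at 5 concentrations, incubate 48 h, interpolate endpoints linearly. At the GI50, growth is halved. TGI is the concentration that stops growth completely.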

How the values were obtained:
Assay in all cases: DTP human tumour cell line panel, 48 h
UACC-257 melanoma = system: UACC-257 melanoma
SF-295 CNS = system: SF-295 CNS
A549 NSCLC = system: A549 NSCLC
ACHN renal = system: ACHN renal
SK-MEL-5 melanoma = system: SK-MEL-5 melanoma
RXF 393 renal = system: RXF 393 renal
SF-268 CNS = system: SF-268 CNS
SR leukemia = system: SR leukemia

| SMILES | GI50 (UACC-257 melanoma) [µM] | TGI (UACC-257 melanoma) [µM] | GI50 (SF-295 CNS) [µM] | TGI (SF-295 CNS) [µM] | GI50 (A549 NSCLC) [µM] | TGI (A549 NSCLC) [µM] | GI50 (ACHN renal) [µM] | TGI (ACHN renal) [µM] | GI50 (SK-MEL-5 melanoma) [µM] | TGI (SK-MEL-5 melanoma) [µM] | GI50 (RXF 393 renal) [µM] | TGI (RXF 393 renal) [µM] | GI50 (SF-268 CNS) [µM] | TGI (SF-268 CNS) [µM] | GI50 (SR leukemia) [µM] | TGI (SR leukemia) [µM] |
| --- | --- | --- | --- | --- | --- | --- | --- | --- | --- | --- | --- | --- | --- | --- | --- | --- |
| CCN(CC)CCCC(C)Nc1ccnc2cc(Cl)c(SCc3ccccc3)cc12 (stereo not given) | 0.781 | 2.11 | 1.32 | 3.02 | 1.85 | 3.59 | 1.3 | 2.73 | 1.31 | 2.58 | 1.42 | 2.78 | 1.59 | 3.65 | 0.173 | 0.539 |
| COC(=O)/C(Br)=C/c1c[nH]c2ccc(Br)cc12 | 24.1 | 69.4 | 12.4 | 27.3 |  |  | 11.8 | 43.2 | 12.2 | 24.6 |  |  | 15.6 | 60.3 | 26.9 | > 100 |
| O=C1C=CC(=O)N1CCCCCCCCCCN1C(=O)C=CC1=O | 11.5 | 24.8 | 23.5 | 74.4 | 18.2 | 41.5 | 4.85 | 16.8 | 22.2 | 56.1 | 3.13 | 11.3 | 15.8 | 30.4 | 6.88 | 41.2 |
| N=C1N=Nc2nc(C3(c4nc5n(c4O)C(=N)N=N5)Cc4ccccc4C3=O)c(O)n21 (stereo not given) |  | > 100 |  | > 100 |  | > 100 |  | > 100 |  | > 100 |  | > 100 |  | > 100 |  | > 100 |
| O=C(Nc1cccc2ccccc12)c1cc2ccccc2cc1O | 1.6 | 5.03 | 1.83 | 4.32 | 2.52 | 8.31 | 2.44 | 7.89 | 1.57 | 3.69 | 2.71 | 6.68 | 3.47 | 39.1 | 2.57 | 9.73 |
| COc1ccc(/C=C/C(=O)c2ccc(NC(=O)CSc3nnc(-c4cc(OC)c(OC)c(OC)c4)o3)cc2)cc1 | 2.16 | 4.69 | 1.77 | 3.35 | 1.84 | 3.53 | 1.72 | 3.22 | 2.14 | 5.24 | 1.74 | 3.54 | 1.79 | 3.96 | 1.86 | 4.01 |
| COc1cccc(-c2cc(NCc3ccc4c(c3)OCO4)nc(N)n2)c1 |  |  | 0.0597 | 14.4 | 0.057 | 14.9 | 0.24 | 29.3 | 0.0432 | 3.6 | 0.11 | 17.2 | 3.29 | 22.9 | 0.0453 | 75 |
| CCC1=C[C@H]2CN(CCc3c([nH]c4ccccc34)[C@@](C(=O)OC)(c3cc4c(cc3OC)N(C)[C@H]3[C@@](O)(C(=O)OC)[C@H](OC(C)=O)[C@]5(CC)[C@@H]6C[C@@H]6CN6CC[C@]43[C@@H]65)C2)C1 | 3.42 | 7.33 | 0.0142 | 3.15 | 0.0396 | 9.56 | 0.144 | 6.02 | 0.0143 | 0.586 |  |  | 0.124 | 4.04 |  |  |
